Active and inactive are the calls of the source. The rule behind the calls is not given here.
Key:
[1] = biological target: T1, Protein cereblon/Programmed cell death 1 ligand 1 (Homo sapiens) (UniProt Q9NZQ7+Q96SW2); experiment: PROTAC activity at CRBN/PD-L1 in human HCC827 cells assessed as induction of PD-L1 protein degradation incubated for 24 hrs by Western blot analysis; format: cell-based; settings: dose 0.25-10 µM
[2] = biological target: T1, Protein cereblon/Programmed cell death 1 ligand 1 (Homo sapiens); experiment: (§1) PROTAC activity at CRBN/PD-L1 in human HCC827 cells assessed as induction of PD-L1 degradation at 10 uM preincubated with MG132 for 4 hrs followed by compound addition and measured after 24 hrs by Western blotting; format: cell-based
[3] = test system: MC-38; experiment: Antitumor activity against mouse MC38 cells implanted in female C57BL/6 mouse model assessed as tumor growth inhibition at 20 mg/kg, ip administered once daily for 15 days relative to control; format: functional; settings: MC-38, 360 h, time 15 day, read-out: TGI
[4] = biological target: T1, Protein cereblon/Programmed cell death 1 ligand 1 (Homo sapiens); experiment: as §1, with “5-((5-((2-chloro-2'-fluoro-[1,1'-biphenyl]-3-yl)methoxy)-2-(((2-hydroxyethyl)amino)methyl)phenoxy)methyl)nicotinonitrile” for “MG132”; format: cell-based
[5] = Binding affinity to C-terminal fused with Fc region of human IgG1 recombinant human PD-L1 extracellular domain (1 to 239 residues) extracted from HEK293 cells assessed as dissociation constant by MST analysis; format: cell-free
[6] = biological target: T1, Protein cereblon/Programmed cell death 1 ligand 1 (Homo sapiens); experiment: PROTAC activity at CRBN/PD-L1 in human HCC827 cells assessed as induction of PD-L1 protein degradation at 10 uM measured within 24 hrs by Western blot analysis relative to control; format: cell-based
[7] = biological target: T1, Protein cereblon/Programmed cell death 1 ligand 1 (Homo sapiens); experiment: PROTAC activity at CRBN/PD-L1 in human HCC827 cell cytoplasm assessed as decrease in PD-L1 expression in cytoplasm at 10 uM incubated for 24 hrs by Western blotting; format: subcellular
[8] = test system: Mus musculus; experiment: Immunoregulatory activity in female C57BL/6 mouse model implanted with mouse MC38 cells assessed as increase in CD8+/CD4+ ratio in lymph node at 10 to 20 mg/kg, ip administered once daily for 15 days by flow cytometric analysis; format: functional, organism-based; settings: dose 10-20 mg/kg, time 15.0 day
[9] = biological target: T1, Protein cereblon/Programmed cell death 1 ligand 1 (Homo sapiens); experiment: PROTAC activity at CRBN/PD-L1 in human HCC827 cells assessed as induction of PD-L1 degradation at 10 uM preincubated with bafilomycin A1 for 4 hrs followed by compound addition and measured after 24 hrs by Western blotting; format: cell-based
[10] = test system: Mus musculus; experiment: Immunoregulatory activity in female C57BL/6 mouse model implanted with mouse MC38 cells assessed as increase in CXCL9 mRNA level in tumor at 10 to 20 mg/kg, ip administered once daily for 15 days by qPCR analysis; format: functional, organism-based; settings: dose 10-20 mg/kg, time 15.0 day
[11] = biological target: Protein cereblon/Programmed cell death 1 ligand 1 (Mus musculus) (UniProt Q9EP73+Q8C7D2); experiment: PROTAC activity at CRBN/PD-L1 in mouse MC38 cells assessed as induction of PD-L1 protein degradation at 0.25 to 10 uM incubated for 24 hrs by Western blot analysis; format: cell-based; settings: dose 0.25-10 µM
Sequence of Protein cereblon/Programmed cell death 1 ligand 1 (Mus musculus) (Q8C7D2 whole entry partner): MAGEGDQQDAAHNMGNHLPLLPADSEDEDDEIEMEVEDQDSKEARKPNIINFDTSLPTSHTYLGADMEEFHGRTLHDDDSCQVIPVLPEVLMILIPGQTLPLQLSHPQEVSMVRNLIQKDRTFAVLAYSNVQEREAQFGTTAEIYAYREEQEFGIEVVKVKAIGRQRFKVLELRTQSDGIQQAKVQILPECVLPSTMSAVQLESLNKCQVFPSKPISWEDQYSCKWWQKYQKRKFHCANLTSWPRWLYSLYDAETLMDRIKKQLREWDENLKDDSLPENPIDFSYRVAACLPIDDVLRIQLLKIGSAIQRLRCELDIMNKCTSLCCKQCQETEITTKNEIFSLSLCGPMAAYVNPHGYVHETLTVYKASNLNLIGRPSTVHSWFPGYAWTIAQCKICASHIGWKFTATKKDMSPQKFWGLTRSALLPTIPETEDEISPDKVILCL
Sequence of Protein cereblon/Programmed cell death 1 ligand 1 (Mus musculus) (Q9EP73 19-290 limits assumed): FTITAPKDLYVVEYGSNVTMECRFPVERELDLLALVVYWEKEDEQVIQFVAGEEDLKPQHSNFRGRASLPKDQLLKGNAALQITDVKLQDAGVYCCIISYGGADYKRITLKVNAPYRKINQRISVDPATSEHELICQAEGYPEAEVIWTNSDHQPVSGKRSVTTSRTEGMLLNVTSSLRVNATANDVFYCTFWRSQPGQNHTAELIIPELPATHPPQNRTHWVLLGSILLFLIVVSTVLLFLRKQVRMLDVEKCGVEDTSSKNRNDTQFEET

[12] = test system: Mus musculus; experiment: Immunoregulatory activity in female C57BL/6 mouse model implanted with mouse MC38 cells assessed as increase in CD8+/CD4+ ratio in tumor at 10 to 20 mg/kg, ip administered once daily for 15 days by flow cytometric analysis; format: functional, organism-based; settings: dose 10-20 mg/kg, time 15.0 day
[13] = test system: HCC827; experiment: Antitumor activity against human HCC827 cells co-cultured with PMA-activated human Jurkat T cells assessed as T cell mediated tumor killing by measuring survival rate at 5 uM incubated for 24 hrs by CCK8 assay relative to control; format: functional; settings: read-out: Survival
[14] = test system: Mus musculus; experiment: Immunoregulatory activity in female C57BL/6 mouse model implanted with mouse MC38 cells assessed as increase in granzyme B expression at 10 to 20 mg/kg, ip administered once daily for 15 days by hematoxylin staining based immunohistochemistry; format: functional, organism-based; settings: dose 10-20 mg/kg, time 15.0 day
[15] = test system: Mus musculus; experiment: In vivo PROTAC activity at CRBN/PD-L1 in female C57BL/6 mouse implanted with mouse MC38 cells assessed as decrease in PD-L1 protein expression in tumor at 10 to 20 mg/kg, ip administered once daily for 15 days by hematoxylin staining based immunohistochemistry; format: functional, organism-based; settings: dose 10-20 mg/kg, time 15.0 day
[16] = test system: Mus musculus; experiment: Immunoregulatory activity in female C57BL/6 mouse model implanted with mouse MC38 cells assessed as increase in CXCR3 mRNA level in tumor at 10 to 20 mg/kg, ip administered once daily for 15 days by qPCR analysis; format: functional, organism-based; settings: dose 10-20 mg/kg, time 15.0 day
[17] = biological target: T1, Protein cereblon/Programmed cell death 1 ligand 1 (Homo sapiens); experiment: PROTAC activity at CRBN/PD-L1 in human 786-0 cells assessed as induction of PD-L1 protein degradation at 0.25 to 10 uM incubated for 24 hrs by Western blot analysis; format: cell-based; settings: dose 0.25-10 µM
[18] = biological target: T1, Protein cereblon/Programmed cell death 1 ligand 1 (Homo sapiens); experiment: PROTAC activity at CRBN/PD-L1 in human HCC827 cell membrane assessed as decrease in PD-L1 expression in membrane at 10 uM incubated for 24 hrs by Western blotting; format: cell membranes
[19] = biological target: Programmed cell death protein 1/Programmed cell death 1 ligand 1 (Homo sapiens, UniProt Q9NZQ7); experiment: Inhibition of human PD-1/PD-L1 interaction by HTRF assay; format: protein-complex assay
Sequence of Programmed cell death protein 1/Programmed cell death 1 ligand 1 (Q15116 whole entry): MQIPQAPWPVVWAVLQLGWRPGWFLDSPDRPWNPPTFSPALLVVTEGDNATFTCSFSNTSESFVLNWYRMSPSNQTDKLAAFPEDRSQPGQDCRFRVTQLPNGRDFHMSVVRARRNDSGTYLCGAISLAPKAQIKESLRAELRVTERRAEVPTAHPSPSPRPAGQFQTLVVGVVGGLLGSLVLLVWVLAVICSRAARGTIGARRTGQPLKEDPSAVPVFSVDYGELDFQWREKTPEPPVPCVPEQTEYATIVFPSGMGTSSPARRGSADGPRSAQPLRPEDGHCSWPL
Sequence of Programmed cell death protein 1/Programmed cell death 1 ligand 1 (Q9NZQ7 whole entry): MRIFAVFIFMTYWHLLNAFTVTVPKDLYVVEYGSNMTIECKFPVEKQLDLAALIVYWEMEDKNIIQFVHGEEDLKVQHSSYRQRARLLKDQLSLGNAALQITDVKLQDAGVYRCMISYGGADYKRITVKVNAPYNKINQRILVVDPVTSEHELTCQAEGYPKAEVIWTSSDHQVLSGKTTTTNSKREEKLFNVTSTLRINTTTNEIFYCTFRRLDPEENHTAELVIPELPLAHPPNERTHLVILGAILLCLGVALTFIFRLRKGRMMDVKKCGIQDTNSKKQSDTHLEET

[20] = biological target: T1, Protein cereblon/Programmed cell death 1 ligand 1 (Homo sapiens); experiment: PROTAC activity at CRBN/PD-L1 in human HCC827 cells assessed as induction of PD-L1 degradation at 10 uM preincubated with pomalidomide for 4 hrs followed by compound addition and measured after 24 hrs by Western blotting; format: cell-based
[21] = test system: Mus musculus; experiment: Immunoregulatory activity in female C57BL/6 mouse model implanted with mouse MC38 cells assessed as increase in CXCL10 mRNA level in tumor at 10 to 20 mg/kg, ip administered once daily for 15 days by qPCR analysis; format: functional, organism-based; settings: dose 10-20 mg/kg, time 15.0 day
[22] = Toxicity in female C57BL/6 mouse implanted with mouse MC38 cells assessed as effect on body weight at 10 to 20 mg/kg, ip administered once daily for 15 days; format: organism-based; settings: in vivo, 360 h, dose 10-20 mg/kg, time 15 day
[23] = test system: Mus musculus; experiment: Immunoregulatory activity in female C57BL/6 mouse model implanted with mouse MC38 cells assessed as increase in perforin expression at 10 to 20 mg/kg, ip administered once daily for 15 days by hematoxylin staining based immunohistochemistry; format: functional, organism-based; settings: dose 10-20 mg/kg, time 15.0 day
[24] = biological target: T1, Protein cereblon/Programmed cell death 1 ligand 1 (Homo sapiens); experiment: PROTAC activity at CRBN/PD-L1 in human HCC827 cells assessed as induction of PD-L1 internalization at cell membrane by measuring decrease in fluorescence intensity of cell membrane at 10 uM incubated for 12 to 24 hrs by DAPI immunostaining based confocal scanning microscopic analysis; settings: time 12-24 hrs
[25] = test system: MC-38; experiment: Antitumor activity against mouse MC38 cells implanted in female C57BL/6 mouse model assessed as tumor growth inhibition at 10 mg/kg, ip administered once daily for 15 days relative to control; format: functional; settings: MC-38, 360 h, time 15 day, read-out: TGI
[26] = biological target: T1, Protein cereblon/Programmed cell death 1 ligand 1 (Homo sapiens); experiment: PROTAC activity at CRBN/PD-L1 in human SK-N-AS cells assessed as induction of PD-L1 protein degradation at 0.25 to 10 uM incubated for 24 hrs by Western blot analysis; format: cell-based; settings: dose 0.25-10 µM
[27] = biological target: T1, Protein cereblon/Programmed cell death 1 ligand 1 (Homo sapiens); experiment: PROTAC activity at CRBN/PD-L1 in human HCC827 cells assessed as induction of PD-L1 internalization at cell membrane by measuring increase in fluorescence intensity around nucleus at 10 uM incubated for 12 hrs by DAPI immunostaining based confocal scanning microscopic analysis
[28] = biological target: T1, Protein cereblon/Programmed cell death 1 ligand 1 (Homo sapiens); experiment: PROTAC activity at CRBN/PD-L1 in human HCC827 cell membrane assessed as decrease in PD-L1 expression in membrane incubated for 24 hrs by flow cytometric analysis; format: cell membranes; settings: dose 2.5-10 µM
[29] = test system: HCC827; experiment: Effect on PD-L1 protein expression in human HCC827 cells at 10 uM incubated for 24 hrs by Western blot analysis; format: functional, cell-based
[30] = biological target: T1, Protein cereblon/Programmed cell death 1 ligand 1 (Homo sapiens); experiment: PROTAC activity at CRBN/PD-L1 in human HCC827 cells assessed as induction of PD-L1 protein degradation at 20 uM measured within 24 hrs by Western blot analysis relative to control; format: cell-based
[31] = test system: HCC827; experiment: Antitumor activity against human HCC827 cells co-cultured with PMA-activated human Jurkat T cells assessed as T cell mediated tumor killing by measuring survival rate at 10 uM incubated for 24 hrs by CCK8 assay relative to control; format: functional; settings: read-out: Survival
[32] = biological target: von Hippel-Lindau disease tumor suppressor/Programmed cell death 1 ligand 1 (Homo sapiens) (UniProt P40337+Q9NZQ7); experiment: PROTAC activity at VHL/PD-L1 in human HCC827 cells assessed as induction of PD-L1 protein degradation incubated for 24 hrs by Western blot analysis; format: cell-based; settings: dose 0.25-10 µM
Sequence of von Hippel-Lindau disease tumor suppressor/Programmed cell death 1 ligand 1 (Homo sapiens) (P40337 whole entry, looked up): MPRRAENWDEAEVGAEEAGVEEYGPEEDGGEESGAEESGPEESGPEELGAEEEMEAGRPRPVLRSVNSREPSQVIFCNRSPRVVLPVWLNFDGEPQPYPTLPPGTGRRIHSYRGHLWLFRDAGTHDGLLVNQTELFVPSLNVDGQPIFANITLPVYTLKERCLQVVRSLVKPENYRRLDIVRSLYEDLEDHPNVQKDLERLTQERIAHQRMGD
Sequence of von Hippel-Lindau disease tumor suppressor/Programmed cell death 1 ligand 1 (Homo sapiens) (Q9NZQ7 whole entry, looked up): as the sequence (Q9NZQ7 whole entry) above

T1 sequence (Q96SW2 whole entry, looked up): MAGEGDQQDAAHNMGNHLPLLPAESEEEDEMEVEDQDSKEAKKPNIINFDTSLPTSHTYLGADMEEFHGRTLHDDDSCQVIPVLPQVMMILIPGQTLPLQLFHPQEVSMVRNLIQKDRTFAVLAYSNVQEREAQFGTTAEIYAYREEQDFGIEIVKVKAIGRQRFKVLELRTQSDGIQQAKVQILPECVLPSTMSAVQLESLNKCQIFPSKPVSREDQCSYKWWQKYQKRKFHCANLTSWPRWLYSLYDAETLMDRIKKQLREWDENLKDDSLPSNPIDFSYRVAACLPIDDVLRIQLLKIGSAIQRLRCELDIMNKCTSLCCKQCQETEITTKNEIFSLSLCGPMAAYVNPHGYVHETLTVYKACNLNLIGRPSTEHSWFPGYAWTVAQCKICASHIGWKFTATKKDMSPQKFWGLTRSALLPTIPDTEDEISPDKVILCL
T1 sequence (Q9NZQ7 whole entry, looked up): as the sequence (Q9NZQ7 whole entry) above

With `N#Cc1cncc(COc2cc(OCc3cccc(-c4ccccc4F)c3Cl)ccc2CNCCCCCCCCNc2cccc3c2C(=O)N(C2CCC(=O)NC2=O)C3=O)c1` (stereo not given) the Activity [1] was “Dose-Dependent Effect”.

For `N#Cc1cncc(COc2cc(OCc3cccc(-c4ccccc4F)c3Cl)ccc2CNCCOCCOCCOCCNc2cccc3c2C(=O)N(C2CCC(=O)NC2=O)C3=O)c1` (stereo not given), the Activity [2] was “inactive”, the inhibition in vivo at 20 mg/kg [3] was 54.9% and the Activity [4] was “inactive”. The Kd [5] was 251 nM, the Activity [6] was 58% and the Activity [1] was “Dose-Dependent Effect”. The Activity [7] was “Active”, the Activity [8] was “Active” and the Activity [9] was “inactive”. The Activity [10] was “Active”, the Activity [11] was “Active” and the Activity [12] was “Active”. For the same compound, the viability at 5 µM [13] was 73.2%, the Activity [14] was “Active” and the Activity [15] was “Active”. For the same compound, the Activity [16] was “Active”, the Activity [17] was “Active” and the Activity [18] was “Active”. The IC50 [19] was 219 nM, the Activity [20] was “inactive” and the Activity [21] was “Active”. The Activity [22] was “Non-Toxic”, the Activity [23] was “Active” and the Activity [24] was “Active”. The inhibition in vivo at 10 mg/kg [25] was 34.6%, the Activity [26] was “Active” and the Activity [27] was “Active”. The Activity [28] was “Dose-Dependent Effect”.

In the case of `Nc1cccc2c1C(=O)N(C1CCC(=O)NC1=O)C2=O` (stereo not given), the Activity [29] is reported as “inactive”.

With `N#Cc1cncc(COc2cc(OCc3cccc(-c4ccccc4F)c3Cl)ccc2CNCc2cn(CCCCCC(=O)Nc3cccc4c3CN(C3CCC(=O)NC3=O)C4=O)nn2)c1` (stereo not given) the Activity [1] was “Dose-Dependent Effect”.

In the case of `N#Cc1cncc(COc2cc(OCc3cccc(-c4ccccc4F)c3Cl)ccc2CNCCO)c1`, the Kd [5] is reported as 20.2 nM and the Activity [29] is reported as “inactive”.

With `N#Cc1cncc(COc2cc(OCc3cccc(-c4ccccc4F)c3Cl)ccc2CNCCOCCOCCNc2cccc3c2C(=O)N(C2CCC(=O)NC2=O)C3=O)c1` (stereo not given) the Activity [2] was “inactive”, the inhibition in vivo at 20 mg/kg [3] was 57.4% and the Activity [4] was “inactive”. The Kd [5] was 301 nM, the Activity [1] was “Dose-Dependent Effect” and the Activity [7] was “Active”. The Activity [8] was “Active”, the Activity [9] was “inactive” and the Activity [10] was “Active”. For the same compound, the Activity [11] was “Active”, the Activity [12] was “Active” and the Activity [14] was “Active”. The Activity [30] was 60.9%, the Activity [15] was “Active” and the Activity [16] was “Active”. For the same compound, the Activity [17] was “Active”, the Activity [18] was “Active” and the IC50 [19] was 197 nM. The Activity [20] was “inactive”, the Activity [21] was “Active” and the viability at 10 µM [31] was 50.6%. The Activity [22] was “Non-Toxic”, the Activity [23] was “Active” and the Activity [24] was “Active”. The inhibition in vivo at 10 mg/kg [25] was 48.7%, the Activity [26] was “Active” and the Activity [27] was “Active”. The Activity [28] was “Dose-Dependent Effect”.

With `N#Cc1cncc(COc2cc(OCC3C=CC=C(c4ccccc4F)C3Cl)ccc2CNCCOCCOCCOCCOCCOCCOCCC(=O)Nc2cccc3c2CN(C2CCC(=O)NC2=O)C3=O)c1` (stereo not given) the Activity [1] was “Dose-Dependent Effect”.

With `Cc1ncsc1-c1ccc([C@H](C)NC(=O)[C@@H]2C[C@@H](O)CN2C(=O)[C@@H](NC(=O)CCOCCOCCOCCOCCNCc2ccc(OCc3cccc(-c4ccccc4F)c3Cl)cc2OCc2cncc(C#N)c2)C(C)(C)C)cc1` the Activity [32] was “Dose-Dependent Effect”.

For `N#Cc1cncc(COc2cc(OCc3cccc(-c4ccccc4F)c3Cl)ccc2CNCCCCCNc2cccc3c2C(=O)N(C2CCC(=O)NC2=O)C3=O)c1` (stereo not given), the Activity [1] was “Dose-Dependent Effect”.

For `Cc1ncsc1-c1ccc([C@H](C)NC(=O)[C@@H]2C[C@@H](O)CN2C(=O)[C@@H](NC(=O)CCCNCc2ccc(OCc3cccc(-c4ccccc4F)c3Cl)cc2OCc2cncc(C#N)c2)C(C)(C)C)cc1`, the Activity [32] was “Dose-Dependent Effect”.

Reference: ChEMBL document CHEMBL6071138, “Design, synthesis, anti-tumor activity and mechanism of novel PROTACs as degraders of PD-L1 and inhibitors of PD-1/PD-L1 interaction” (Bioorg Med Chem, 2024)
